Measured values as given in PubChem BioAssay (NCI).
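How tested: cells in 96-well plates exposed to compound for 48 hours at five concentrations. TGI: total growth inhibition.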

Key:
Experiment in all cases: inhibition of tumour cell growth, NCI panel, 48 h
HL-60(TB) leukemia = tested on: HL-60(TB) leukemia
KM12 colon = tested on: KM12 colon
PC-3 prostate = tested on: PC-3 prostate
OVCAR-5 ovarian = tested on: OVCAR-5 ovarian
OVCAR-8 ovarian = tested on: OVCAR-8 ovarian
SK-OV-3 ovarian = tested on: SK-OV-3 ovarian
RXF-631 renal = tested on: RXF-631 renal
RPMI-8226 leukemia = tested on: RPMI-8226 leukemia
SF-295 CNS = tested on: SF-295 CNS
HT29 colon = tested on: HT29 colon
U251 CNS = tested on: U251 CNS
CCRF-CEM leukemia = tested on: CCRF-CEM leukemia
NCI-H522 lung = tested on: NCI-H522 lung
SK-MEL-2 melanoma = tested on: SK-MEL-2 melanoma
ACHN renal = tested on: ACHN renal
786-0 renal = tested on: 786-0 renal
UACC-257 melanoma = tested on: UACC-257 melanoma
DLD-1 colon = tested on: DLD-1 colon
LOX IMVI melanoma = tested on: LOX IMVI melanoma
MDA-MB-435 = tested on: MDA-MB-435
SW-620 colon = tested on: SW-620 colon
DMS 273 small cell lung = tested on: DMS 273 small cell lung
LXFL 529 NSCLC = tested on: LXFL 529 NSCLC
MALME-3M melanoma = tested on: MALME-3M melanoma
HOP-92 NSCLC = tested on: HOP-92 NSCLC
CAKI-1 renal = tested on: CAKI-1 renal
UO-31 renal = tested on: UO-31 renal
MOLT-4 leukemia = tested on: MOLT-4 leukemia
BT-549 breast = tested on: BT-549 breast
HCT-15 colon = tested on: HCT-15 colon
SF-539 CNS = tested on: SF-539 CNS
SF-268 CNS = tested on: SF-268 CNS
DU-145 prostate = tested on: DU-145 prostate
HS 578T breast = tested on: HS 578T breast
M14 melanoma = tested on: M14 melanoma
SK-MEL-28 melanoma = tested on: SK-MEL-28 melanoma
RXF 393 renal = tested on: RXF 393 renal
OVCAR-4 ovarian = tested on: OVCAR-4 ovarian
IGROV1 ovarian = tested on: IGROV1 ovarian
MDA-MB-231 breast = tested on: MDA-MB-231 breast
NCI/ADR-RES ovarian = tested on: NCI/ADR-RES ovarian
SR leukemia = tested on: SR leukemia
NCI-H23 lung = tested on: NCI-H23 lung
K-562 leukemia = tested on: K-562 leukemia
HCT-116 colon = tested on: HCT-116 colon
NCI-H460 lung = tested on: NCI-H460 lung
KM20L2 colon = tested on: KM20L2 colon
XF 498 CNS = tested on: XF 498 CNS
HCC-2998 colon = tested on: HCC-2998 colon
COLO 205 colon = tested on: COLO 205 colon
MDA-N = tested on: MDA-N
OVCAR-3 ovarian = tested on: OVCAR-3 ovarian
M19-MEL melanoma = tested on: M19-MEL melanoma
A549 NSCLC = tested on: A549 NSCLC
HOP-62 NSCLC = tested on: HOP-62 NSCLC
EKVX NSCLC = tested on: EKVX NSCLC
SK-MEL-5 melanoma = tested on: SK-MEL-5 melanoma
T-47D breast = tested on: T-47D breast
SN12C renal = tested on: SN12C renal
HOP-18 NSCLC = tested on: HOP-18 NSCLC
TK-10 renal = tested on: TK-10 renal
SNB-75 CNS = tested on: SNB-75 CNS
UACC-62 melanoma = tested on: UACC-62 melanoma
DMS 114 small cell lung = tested on: DMS 114 small cell lung
A498 renal = tested on: A498 renal
NCI-H226 lung = tested on: NCI-H226 lung
SNB-19 CNS = tested on: SNB-19 CNS
SNB-78 CNS = tested on: SNB-78 CNS
MCF7 breast = tested on: MCF7 breast

## Nc1ccc(S(=O)(=O)Nc2cnc3ccccc3n2)cc1
HL-60(TB) leukemia
  TGI: > 100 µM
KM12 colon
  TGI: > 100 µM
PC-3 prostate
  TGI: > 100 µM
OVCAR-5 ovarian
  TGI: > 100 µM
OVCAR-8 ovarian
  TGI: > 100 µM
SK-OV-3 ovarian
  TGI: > 100 µM
RXF-631 renal
  TGI: > 100 µM
RPMI-8226 leukemia
  TGI: > 100 µM
SF-295 CNS
  TGI: > 100 µM
HT29 colon
  TGI: > 100 µM
U251 CNS
  TGI: > 100 µM
CCRF-CEM leukemia
  TGI: > 100 µM
NCI-H522 lung
  TGI: > 100 µM
SK-MEL-2 melanoma
  TGI: > 100 µM
ACHN renal
  TGI: > 100 µM
786-0 renal
  TGI: > 100 µM
UACC-257 melanoma
  TGI: > 100 µM
DLD-1 colon
  TGI: > 100 µM
LOX IMVI melanoma
  TGI: > 100 µM
MDA-MB-435
  TGI: > 100 µM
SW-620 colon
  TGI: > 100 µM
DMS 273 small cell lung
  TGI: > 100 µM
LXFL 529 NSCLC
  TGI: > 100 µM
MALME-3M melanoma
  TGI: > 100 µM
HOP-92 NSCLC
  TGI: > 100 µM
CAKI-1 renal
  TGI: > 100 µM
UO-31 renal
  TGI: > 100 µM
MOLT-4 leukemia
  TGI: > 100 µM
BT-549 breast
  TGI: > 100 µM
HCT-15 colon
  TGI: > 100 µM
SF-539 CNS
  TGI: > 100 µM
SF-268 CNS
  TGI: > 100 µM
DU-145 prostate
  TGI: > 100 µM
HS 578T breast
  TGI: 35.3 µM
M14 melanoma
  TGI: > 100 µM
SK-MEL-28 melanoma
  TGI: > 100 µM
RXF 393 renal
  TGI: > 100 µM
OVCAR-4 ovarian
  TGI: > 100 µM
IGROV1 ovarian
  TGI: > 100 µM
MDA-MB-231 breast
  TGI: > 100 µM
NCI/ADR-RES ovarian
  TGI: > 100 µM
SR leukemia
  TGI: > 100 µM
NCI-H23 lung
  TGI: > 100 µM
K-562 leukemia
  TGI: > 100 µM
HCT-116 colon
  TGI: > 100 µM
NCI-H460 lung
  TGI: > 100 µM
KM20L2 colon
  TGI: > 100 µM
XF 498 CNS
  TGI: > 100 µM
HCC-2998 colon
  TGI: > 100 µM
COLO 205 colon
  TGI: > 100 µM
MDA-N
  TGI: > 100 µM
OVCAR-3 ovarian
  TGI: > 100 µM
M19-MEL melanoma
  TGI: > 100 µM
A549 NSCLC
  TGI: > 100 µM
HOP-62 NSCLC
  TGI: > 100 µM
EKVX NSCLC
  TGI: > 100 µM
SK-MEL-5 melanoma
  TGI: > 100 µM
T-47D breast
  TGI: > 100 µM
SN12C renal
  TGI: > 100 µM
HOP-18 NSCLC
  TGI: > 100 µM
TK-10 renal
  TGI: > 100 µM
SNB-75 CNS
  TGI: > 100 µM
UACC-62 melanoma
  TGI: > 100 µM
DMS 114 small cell lung
  TGI: > 100 µM
A498 renal
  TGI: > 100 µM
NCI-H226 lung
  TGI: > 100 µM
SNB-19 CNS
  TGI: > 100 µM
SNB-78 CNS
  TGI: > 100 µM

## CCc1cccc(CC)c1NC(=O)C(C#N)C1=C(Cl)C(=O)c2ccccc2C1=O (stereo unspecified)
HL-60(TB) leukemia
  TGI: 5.28 µM
KM12 colon
  TGI: 35.5 µM
PC-3 prostate
  TGI: 25.9 µM
OVCAR-5 ovarian
  TGI: 34.5 µM
OVCAR-8 ovarian
  TGI: 57.1 µM
SK-OV-3 ovarian
  TGI: 42.4 µM
RXF-631 renal
  TGI: > 56.8 µM
RPMI-8226 leukemia
  TGI: 23.4 µM
SF-295 CNS
  TGI: 29.9 µM
HT29 colon
  TGI: 39.7 µM
U251 CNS
  TGI: 33.7 µM
CCRF-CEM leukemia
  TGI: 15.6 µM
NCI-H522 lung
  TGI: 23 µM
SK-MEL-2 melanoma
  TGI: 34.7 µM
ACHN renal
  TGI: 30.5 µM
786-0 renal
  TGI: 31 µM
UACC-257 melanoma
  TGI: 32.2 µM
DLD-1 colon
  TGI: 45.2 µM
LOX IMVI melanoma
  TGI: 45.1 µM
MDA-MB-435
  TGI: 27.9 µM
SW-620 colon
  TGI: 31.2 µM
DMS 273 small cell lung
  TGI: 45.3 µM
LXFL 529 NSCLC
  TGI: 30.1 µM
MALME-3M melanoma
  TGI: 21 µM
HOP-92 NSCLC
  TGI: 8.89 µM
CAKI-1 renal
  TGI: 24.7 µM
UO-31 renal
  TGI: 24.3 µM
MOLT-4 leukemia
  TGI: 20.3 µM
BT-549 breast
  TGI: 24.8 µM
HCT-15 colon
  TGI: 42.9 µM
SF-539 CNS
  TGI: 25.6 µM
SF-268 CNS
  TGI: 36 µM
DU-145 prostate
  TGI: 30.5 µM
HS 578T breast
  TGI: 9.32 µM
M14 melanoma
  TGI: 35.1 µM
SK-MEL-28 melanoma
  TGI: 41 µM
RXF 393 renal
  TGI: 29.8 µM
OVCAR-4 ovarian
  TGI: 31.6 µM
IGROV1 ovarian
  TGI: 32 µM
MDA-MB-231 breast
  TGI: 21.6 µM
SR leukemia
  TGI: > 28.9 µM
NCI-H23 lung
  TGI: 24.3 µM
K-562 leukemia
  TGI: 14.1 µM
HCT-116 colon
  TGI: 34 µM
NCI-H460 lung
  TGI: 52 µM
KM20L2 colon
  TGI: 43.8 µM
XF 498 CNS
  TGI: 29.4 µM
HCC-2998 colon
  TGI: 31.2 µM
COLO 205 colon
  TGI: 49.1 µM
MCF7 breast
  TGI: 34.5 µM
MDA-N
  TGI: 30.3 µM
OVCAR-3 ovarian
  TGI: 36.9 µM
M19-MEL melanoma
  TGI: 47.2 µM
A549 NSCLC
  TGI: 40.9 µM
HOP-62 NSCLC
  TGI: 21.4 µM
EKVX NSCLC
  TGI: 36 µM
SK-MEL-5 melanoma
  TGI: 28.2 µM
T-47D breast
  TGI: 18.1 µM
SN12C renal
  TGI: 31.3 µM
HOP-18 NSCLC
  TGI: 28.9 µM
TK-10 renal
  TGI: 35.9 µM
SNB-75 CNS
  TGI: 17.4 µM
UACC-62 melanoma
  TGI: 31.7 µM
DMS 114 small cell lung
  TGI: 65.4 µM
A498 renal
  TGI: 36.5 µM
NCI-H226 lung
  TGI: 29.8 µM
SNB-19 CNS
  TGI: 44.4 µM
SNB-78 CNS
  TGI: 40.8 µM
